Like-named read-outs stand apart in the source and are kept apart here.
Legend:
[1] = test system: Human aortic endothelial cells; assay: Prevention of LDL-induced monocyte chemotactic activity by pre-treatment (pre-incubation) of artery wall cells; assay type: cell-based; details: pre-incubation 6 hrs, washed, then control human LDL 200 μg protein/ml overnight; relative to D-4F (FIG. 2)
Procedure: FIG. 2 illustrates a comparison of the effect of D-4F with the effect of D-J336 on the prevention of LDL induced monocyte chemotactic activity in a pre-incubation. Human aortic endothelial cells were pre-incubated with D-J336 or D-4F at 4, 2, and 1 μg/ml for DJ336 or 100, 50, 25, and 12.5 μg/ml for D-4F for 6 hrs. The cultures were then washed and were incubated with medium alone (no addition), or with control human LDL (200 μg protein/ml), or with control human LDL+control human HDL (350 μg HDL protein/ml) as assay controls. The wells that were pre-treated with peptides received the control human LDL at 200 μg protein/ml. Following overnight incubation, the supernatants were assayed for monocyte chemotactic activity.

[2] = test system: apo E null mice; assay: Protection against LDL-induced monocyte chemotactic activity by HDL from apo E null mice given oral peptides; assay type: in vivo; details: for potency compared with D-4F in enhancing HDL protective capacity: apo E null mice, added to the drinking water (FIG. 4)
Procedure: FIG. 4 illustrates the effect of oral apoA-1 peptide mimetic and apoJ peptide on HDL protective capacity. […] After 24 hrs blood was collected, plasma fractionated by FPLC and fractions containing LDL (designated as mLDL for murine LDL) and fractions containing HDL (designated as mHDL) were separately pooled and HDL protective capacity against LDL oxidation as determined by LDL-induced monocyte chemotactic activity was determined. For the assay controls the culture wells received no lipoproteins (no additions), mLDL alone (at 200 μg cholesterol/ml), or mLDL+standard normal human HDL (designated as Cont. h HDL, at 350 μg HDL cholesterol/ml).
For testing the murine HDL, mLDL together with murine HDL (+F mHDL or +J mHDL) were added to artery wall cell cultures. […] The murine HDL was used at 100 μg cholesterol/ml.

[3] = test system: apo E null mice; assay: LDL susceptibility to oxidation: ability of LDL from apoE null mice given oral peptides to induce monocyte chemotactic activity; assay type: in vivo; details: added to the drinking water, 24 hrs (FIG. 5)
Procedure: FIG. 5 illustrates the effect of oral apo A-1 peptide mimetic and apoJ peptide on LDL susceptibility to oxidation. […] After 24 hrs blood was collected from the mice shown in FIG. 4, plasma fractionated by FPLC and fractions containing LDL (designated as mLDL for murine LDL) were pooled and LDL susceptibility to oxidation as determined by induction of monocyte chemotactic activity was determined.
Murine LDL, mLDL, from mice that received the D-4F mLDL) or those that received the apoJ peptide (J mLDL) were added to artery wall cell cultures.

[4] = test system: apo E null mice; details: added to the drinking water, 24 hrs, human artery wall co-culture (FIG. 6)
Procedure: FIG. 6 illustrates the effect of oral apoA-1 peptide mimetic and apoJ peptide on HDL protective capacity. […] After 24 hrs blood was collected, plasma fractionated by FPLC and fractions containing HDL (designated as mHDL) were pooled and HDL protective capacity against PAPC oxidation as determined by the induction of monocyte chemotactic activity was determined. For the assay controls the culture wells received no lipoproteins (no additions), the phospholipid PAPC at 20 μg /ml+HPODE, at 1.0 μg/ml, or PAPC+HPODE plus standard normal human HDL (at 350 μg HDL cholesterol/ml and designated as +Cont. h HDL).
For testing the murine HDL, PAPC+HPODE together with murine HDL (+F mHDL or +J mHDL) were added to artery wall cell cultures. […] The murine HDL was used at 100 μg cholesterol/ml.

[5] = test system: PON1; details: apo E null mice, added to the drinking water, 24 hrs, plasma (FIG. 7)
Procedure: After 24 hrs blood was collected and plasma was assayed for PON1 activity.

[6] = test system: LDL receptor null mice; assay: HDL protective capacity in LDL receptor null mice given peptide in drinking water; assay type: in vivo
Procedure: D-4F designated as F, or the apoJ peptide made from D amino acids (D-J336, designated as J) was added to the drinking water of LDL receptor null mice (4 per group) at 0.25 or 0.5 mg per ml of drinking water. After 24- or 48-hrs blood was collected from the mice and their HDL was isolated and tested for its ability to protect against LDL-induced monocyte chemotactic activity. Assay controls included culture wells that received no lipoproteins (no addition), or control human LDL alone (designated as LDL, 200 μg cholesterol/ml), or control LDL+control human HDL (designated as +HDL, 350 μg HDL cholesterol). For testing the mouse HDL, the control LDL was added together with mouse HDL (+F HDL or +J HDL) to artery wall cell cultures. The mouse HDL was added at 100 μg cholesterol/ml respectively.

Ac-LLEQLNEQFNWVSRLANLTQGE-NH2 [D-J336] was tested, and the “times more potent than D-4F in preventing LDL oxidation by artery wall cells” value [1] was 10-25 times, the “potency compared with D-4F in enhancing HDL protective capacity” value [2] was “as potent as D4F” and the “potency compared with D-4F in enhancing HDL protective capacity” value ([2]; listed as D-J peptide) was “as potent as D-4F”. For the same substance, the “activity of murine HDL compared with normal human HDL against LDL-induced monocyte chemotactic activity” value ([2]; apoE null mice, peptide in drinking water, 24 hrs, murine HDL at 100 μg/ml) was “as active as 350 μg/ml of normal human HDL”, the “potency compared with D-4F in rendering LDL resistant to oxidation by human artery wall cells (induction of monocyte chemotactic activity)” value [3] was “lightly more potent than D-4F” and the “potency compared with D-4F in rendering LDL resistant to oxidation by human artery wall cells (induction of monocyte chemotactic activity)” value ([3]; listed as DJ336) was “slightly more potent than D4F”. For the same substance, the “potency compared with D-4F in causing HDL to inhibit oxidation of PAPC by HPODE (generation of monocyte chemotactic activity)” value [4] was “as potent as D-4F”, the “potency compared with D-4F in causing HDL to inhibit oxidation of PAPC by HPODE (generation of monocyte chemotactic activity)” value ([4]; listed as DJ336) was “as potent as D4F” and the “potency compared with D-4F in increasing paraoxonase activity” value [5] was “at least as potent as D-4F”. The “potency compared with D-4F in increasing paraoxonase activity” value ([5]; listed as DJ336) was “at least as potent as D4F”, the “activity of mouse HDL in preventing control LDL from inducing monocyte chemotactic activity, compared with control human HDL” value ([6]; LDL receptor null mice, 0.25 or 0.5 mg per ml drinking water, 24 or 48 hrs, mouse HDL at 100 μg/ml) was “as active as 350 μg/ml of control human HDL” and the “effectiveness compared with D4F in preventing LDL-induced monocyte chemotactic activity” value ([6]; given orally to LDL receptor null mice (FIG. 3)) was “essentially as effective as D4F”.

Reference: patent publication US7638494B2, “G-type peptides to ameliorate atherosclerosis” (The Regents of the University of California, priority 2002, dated 2009)
